Measured values published in patent US20100152206A1, “Bicyclic Dihydropyrimidines and Uses Thereof” (priority 2005, published 2010).
pIC50: −log10 of the molar value.

Experiments:
[1] = biological target: T1, Eg5 motor domain construct Eg5-367H (Homo sapiens, UniProt P52732); experiment: Activity of Eg5 inhibitors in pure protein assay (microtubule-stimulated ATP hydrolysis, malachite green phosphate detection); format: biochemical; details: microtubule-stimulated ATP hydrolysis by Eg5-367H, 25 degrees, 2 hours
T1 construct: the Eg5 motor domain construct Eg5-367H; His tag (read from the 'H' in the construct name; not spelled out for this construct)
T1 sequence (P52732 18-359 limits assumed): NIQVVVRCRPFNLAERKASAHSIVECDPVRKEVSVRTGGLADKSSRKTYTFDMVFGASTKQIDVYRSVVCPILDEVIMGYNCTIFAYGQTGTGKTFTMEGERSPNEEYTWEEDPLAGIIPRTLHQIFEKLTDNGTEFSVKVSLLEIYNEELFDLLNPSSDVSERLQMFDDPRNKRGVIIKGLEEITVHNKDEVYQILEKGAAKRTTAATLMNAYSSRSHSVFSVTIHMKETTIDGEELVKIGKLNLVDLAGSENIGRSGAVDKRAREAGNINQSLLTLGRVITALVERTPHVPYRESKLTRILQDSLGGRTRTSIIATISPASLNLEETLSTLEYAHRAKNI
Experimental: We utilized a colorimetric phosphate detection assay (Funk, 2004) to measure microtubule-stimulated ATP hydrolysis by the Eg5 motor domain construct Eg5-367H (Maliga, 2002) as a function of drug concentration. Stocks solutions of each compound were prepared by serial dilution into DMSO and 0.1 microliters was added by pin transfer into KC25 buffer (20 mM PIPES-KOH, pH 6.9, 25 mM KCl, 2 mM MgC12) supplemented with 1 mM ATP-KOH, pH 6.9. KC25 supplemented with 10 micromolar taxol, 50 nanomolar Eg5-367H, and 1 micromolar taxol-polymerized microtubules was then added and the reaction incubated at 25 degrees for 2 hours. Malachite green assay solution (7% (w/v) perchloric acid, 0.0075% (w/v) malachite green oxalate, 0.2% (w/v) sodium molybdate dihydrate) was added to each reaction and the optical absorbance at 640 nm (640) was measured after a 30 minute incubation using a Wallac II automated plate reader. A640 as a function of! drug concentration (C) was fit to the equation A640=A0+B/(1+C/IC50) using Kaleidegraph 3.0, A0 is the basal A640, B is the maximum increase in A640, and IC50 is the drug concentration that inhibits half the Eg5 activity.

Hela cells = experiment: cells; details: Homo sapiens, 20 h
Experimental: Hela cells were grown (Maliga, et. al. 2001) to 20% confluence in 384-well, clear-bottomed, black-walled NUNC plates and serial dilutions of prospective Eg5 inhibitors were added by pin transfer, as above [0277], incubated at 37° C. for 20 hours, fixed with TBS-0.1% Triton X100 supplemented with 4% formaldehyde, and stained stained for DNA, phosphorylated Ser10-Histone 3, and alpha-tubulin. Each drug concentration was inspected for the characteristic monoaster phenotype: condensed phospho-S10 positive chromosomes arranged in a rosette pattern around a circularly symmetric array of microtubules, and the absence of bi-polar mitotic spindles.

Row | Structure (SMILES) | pIC50 [1] | pIC50 (Hela cells)
1 | O=C1NCCC2=C1C(c1cccc(O)c1)NC(=S)N2 (stereo not shown) [Entry 1] | 5.82 | 4.30
2 | CCOC(=O)C1=C(CCN)NC(=S)NC1c1cccc(O)c1 (stereo not shown) [Entry 2] | < 4.52 | < 3.52
3 | CCOC(=O)C1=C(CCNC(=O)OC(C)(C)C)NC(=S)NC1c1cccc(O)c1 (stereo not shown) [Entry 3] | < 4.52 | < 3.52
4 | CCOC(=O)C1=C(CCO[Si](C(C)C)(C(C)C)C(C)C)NC(=S)NC1c1cccc(O)c1 (stereo not shown) [Entry 4] | < 4.52 | < 3.52
5 | O=C1OCCC2=C1C(c1cccc(O)c1)NC(=S)N2 (stereo not shown) [Entry 5] | 6.30 | 4.52
6 | CCOC(=O)C1=C(CN)NC(=S)NC1c1cccc(O)c1 (stereo not shown) [Entry 6] | 4.92 | 3.70
7 | CCOC(=O)C1=C(CO)NC(=S)NC1c1cccc(O)c1 (stereo not shown) [Entry 7] | 4.52 | 3.52
8 | O=C1OCC2=C1C(c1cccc(O)c1)NC(=S)N2 (stereo not shown) [Entry 8] | 4.70 | 3.52
9 | O=C1NCC2=C1C(c1cccc(O)c1)NC(=S)N2 (stereo not shown) [Entry 9] | 4.92 | < 3.52
10 | CCOC(=O)C1=C(C)NC(=S)NC1c1cccc(N)c1 (stereo not shown) [Entry 10] | < 4.52 | < 3.52
11 | CCOC(=O)C1=C(C)NC(=S)NC1c1cccc(O)c1 (stereo not shown) [Monastrol, reference compound] | 4.92 | 3.52
